Reference: ChEMBL document CHEMBL1201862, “PubChem BioAssay data set” (2004)
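Growth conditions: 96-well plates. Treatment: test compound, 48 hours, 5 concentrations. Analysis: linear interpolation between bracketing concentrations; unreached endpoints set to highest concentration. At the GI50, growth is halved.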 Active and inactive are the calls of the source. Cut-off read from the data, not from the text of the source: active = GI50 up to about 1.1 µM and inactive = higher.

Experiments:
Assay in all cases: NCI-60 cell line screen, 48 h
SK-OV-3 = test system: SK-OV-3
CCRF-CEM = test system: CCRF-CEM
TK-10 = test system: TK-10
UO-31 = test system: UO-31
SF-268 = test system: SF-268
RXF 393 = test system: RXF 393
HOP-92 = test system: HOP-92
OVCAR-5 = test system: OVCAR-5
OVCAR-4 = test system: OVCAR-4
T47D = test system: T47D
MDA-MB-435 = test system: MDA-MB-435
HOP-62 = test system: HOP-62
CAKI-1 = test system: CAKI-1
MOLT-4 = test system: MOLT-4
786-0 = test system: 786-0
NCI-H23 = test system: NCI-H23
HL-60 = test system: HL-60
SK-MEL-2 = test system: SK-MEL-2
NCI/ADR-RES = test system: NCI/ADR-RES
LOX IMVI = test system: LOX IMVI

Measured: GI50

COC(=O)c1ccccc1CC1Cc2cc3c(cc2C1=O)CCC3 (stereo not given)
inactive: SK-OV-3 18.5 µM | CCRF-CEM 6.53 µM | TK-10 16.5 µM | UO-31 22.3 µM | SF-268 29.6 µM | RXF 393 2.56 µM | HOP-92 13.7 µM | OVCAR-5 26.5 µM | OVCAR-4 19.2 µM | T47D 16 µM | MDA-MB-435 1.95 µM | HOP-62 17.1 µM | CAKI-1 11.1 µM | MOLT-4 5.11 µM | 786-0 16.6 µM | NCI-H23 19.3 µM | HL-60 3.83 µM | SK-MEL-2 7.87 µM | NCI/ADR-RES 3.05 µM | LOX IMVI 7.31 µM

Cc1ccc(C(=O)c2[nH]c(Nc3cc(C)ccn3)c(C(=S)Nc3ccccc3)c2N)cc1
inactive: SK-OV-3 > 100 µM | CCRF-CEM > 100 µM | TK-10 > 100 µM | UO-31 > 100 µM | SF-268 > 100 µM | RXF 393 > 100 µM | HOP-92 > 100 µM | OVCAR-5 > 100 µM | OVCAR-4 > 100 µM | T47D > 100 µM | MDA-MB-435 > 100 µM | HOP-62 > 100 µM | CAKI-1 > 100 µM | MOLT-4 > 100 µM | 786-0 > 100 µM | NCI-H23 > 100 µM | HL-60 > 100 µM | SK-MEL-2 > 100 µM | NCI/ADR-RES > 100 µM | LOX IMVI > 100 µM
